What is called Ki is the equilibrium dissociation constant of an inhibitor or competing ligand from its target. The low end stands for a stronger hold on the target, the high end for a looser hold on the target.

Structures are written as SMILES. Where a SMILES comes first, the peptide text is derived from it. [ ]: non-standard residue; d: D form. The star is where a group is joined. ξ: configuration not given here. NMeF = CN[C@@H](Cc1ccccc1)C(=O)O; Cbz = O=C(OCc1ccccc1)*; ξV = CC(C)C(N)C(=O)O

Drawing on ChEMBL document CHEMBL1131841, “Hydroxyoxazolidines as alpha-aminoacetaldehye equivalents: novel inhibitors of calpain” (Bioorg Med Chem Lett, 1999), this text covers Ki for nine molecules.

In assay [1] the target is T1, Calpain-1 catalytic subunit (Homo sapiens, UniProt P07384).
T1 sequence (P07384 whole entry): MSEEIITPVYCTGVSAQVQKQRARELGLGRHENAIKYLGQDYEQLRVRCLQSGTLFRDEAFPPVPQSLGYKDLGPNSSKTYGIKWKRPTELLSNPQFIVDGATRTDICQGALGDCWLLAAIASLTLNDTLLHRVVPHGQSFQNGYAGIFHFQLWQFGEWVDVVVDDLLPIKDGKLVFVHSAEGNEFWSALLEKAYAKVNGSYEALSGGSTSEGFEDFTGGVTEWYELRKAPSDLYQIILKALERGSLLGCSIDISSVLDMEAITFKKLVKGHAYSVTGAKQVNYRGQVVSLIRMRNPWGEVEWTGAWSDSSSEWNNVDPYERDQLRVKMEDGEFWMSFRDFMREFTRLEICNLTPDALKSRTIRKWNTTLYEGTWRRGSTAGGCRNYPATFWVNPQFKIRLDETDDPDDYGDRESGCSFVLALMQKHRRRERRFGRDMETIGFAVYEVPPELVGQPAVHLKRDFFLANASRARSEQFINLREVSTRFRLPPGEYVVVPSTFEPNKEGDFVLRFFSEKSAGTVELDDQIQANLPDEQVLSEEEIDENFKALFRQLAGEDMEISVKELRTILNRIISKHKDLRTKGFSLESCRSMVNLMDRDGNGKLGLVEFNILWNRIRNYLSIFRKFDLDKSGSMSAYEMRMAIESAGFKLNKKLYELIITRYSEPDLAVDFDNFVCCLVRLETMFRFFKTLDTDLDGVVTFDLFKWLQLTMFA
Kind of assay: Tested for inhibitory activity against calpain.

Assay [2] concerns the target Cathepsin B (Bos taurus, UniProt P07688). Kind of assay: Tested for inhibitory activity against bovine cathepsin B.
Assay [3] addresses T1, Calpain-1 catalytic subunit. Kind of assay: Tested for inhibitory activity against calpain; NA means Not active.
For assay [4] the target is unchanged. Put plainly: Tested for inhibitory activity against calpain.

In assay [1], `CC(C)[C@@H](NC(=O)OCc1ccccc1)C(=O)N1CCO[C@@H](O)[C@@H]1Cc1ccccc1` had a Ki of 56000 nM.
As for `CC(C)C(NC(=O)OCc1ccccc1)C(=O)N1CO[C@@H](O)[C@@H]1Cc1ccccc1` (stereo not given in full), the Ki was found to be 33 nM in assay [1] and 120 nM in assay [2].
`CC(C)C(NC(=O)OCc1ccccc1)C(=O)N(C)[C@H](C=O)Cc1ccccc1` (stereo not given in full) (Cbz-[ξV]-[NMeF]-aldehyde) had a Ki in assay [1] of 400 nM.
As for `CC(C)C(NC(=O)OCc1ccccc1)C(=O)N1CC[C@@H](O)[C@@H]1Cc1ccccc1` (stereo not given in full), the Ki entry in assay [3] is listed as “Not Active”.
For the molecule `O=C1c2ccccc2C(=O)N1[C@H]1CCC[C@H]2O[C@@H](O)[C@H](Cc3ccccc3)N2C1=O.O=C1c2ccccc2C(=O)N1[C@H]1CCC[C@H]2O[C@H](O)[C@@H](Cc3ccccc3)N2C1=O`, the affinity in assay [1] corresponds to a Ki of 3200 nM.
The molecule `CC(=O)O[C@@H]1OCN(C(=O)C(NC(=O)OCc2ccccc2)C(C)C)[C@H]1Cc1ccccc1` (stereo not given in full) came in with an inhibitory constant (Ki) in assay [4] of 2000 nM.
Take `O=C(N[C@H]1CCC[C@H]2O[C@@H](O)[C@H](Cc3ccccc3)N2C1=O)OCc1ccccc1.O=C(N[C@H]1CCC[C@H]2O[C@H](O)[C@@H](Cc3ccccc3)N2C1=O)OCc1ccccc1`: the Ki in assay [1] worked out at 1500 nM.
On to `CC(C)C(NC(=O)OCc1ccccc1)C(=O)N1C(=O)C[C@H](O)[C@@H]1Cc1ccccc1` (stereo not given in full), for which the inhibition constant Ki entry in assay [3] was “Not Active”.
In assay [1], `CC(C)C(NC(=O)OCc1ccccc1)C(=O)N(CO)[C@H](C=O)Cc1ccccc1` (stereo not given in full) returned an inhibition constant (Ki) of 400 nM.
